The text below walks through data of ChEMBL document CHEMBL5465560, “Selectivity Literature for EUbOPEN Chemogenomic Library” (2024).

The term IC50 denotes the concentration that inhibits the measured activity by half.

The target of assay [1] is T1, Serine/threonine-protein kinase TAO1 (Homo sapiens) (UniProt Q7L7X3).
T1 sequence (whole entry): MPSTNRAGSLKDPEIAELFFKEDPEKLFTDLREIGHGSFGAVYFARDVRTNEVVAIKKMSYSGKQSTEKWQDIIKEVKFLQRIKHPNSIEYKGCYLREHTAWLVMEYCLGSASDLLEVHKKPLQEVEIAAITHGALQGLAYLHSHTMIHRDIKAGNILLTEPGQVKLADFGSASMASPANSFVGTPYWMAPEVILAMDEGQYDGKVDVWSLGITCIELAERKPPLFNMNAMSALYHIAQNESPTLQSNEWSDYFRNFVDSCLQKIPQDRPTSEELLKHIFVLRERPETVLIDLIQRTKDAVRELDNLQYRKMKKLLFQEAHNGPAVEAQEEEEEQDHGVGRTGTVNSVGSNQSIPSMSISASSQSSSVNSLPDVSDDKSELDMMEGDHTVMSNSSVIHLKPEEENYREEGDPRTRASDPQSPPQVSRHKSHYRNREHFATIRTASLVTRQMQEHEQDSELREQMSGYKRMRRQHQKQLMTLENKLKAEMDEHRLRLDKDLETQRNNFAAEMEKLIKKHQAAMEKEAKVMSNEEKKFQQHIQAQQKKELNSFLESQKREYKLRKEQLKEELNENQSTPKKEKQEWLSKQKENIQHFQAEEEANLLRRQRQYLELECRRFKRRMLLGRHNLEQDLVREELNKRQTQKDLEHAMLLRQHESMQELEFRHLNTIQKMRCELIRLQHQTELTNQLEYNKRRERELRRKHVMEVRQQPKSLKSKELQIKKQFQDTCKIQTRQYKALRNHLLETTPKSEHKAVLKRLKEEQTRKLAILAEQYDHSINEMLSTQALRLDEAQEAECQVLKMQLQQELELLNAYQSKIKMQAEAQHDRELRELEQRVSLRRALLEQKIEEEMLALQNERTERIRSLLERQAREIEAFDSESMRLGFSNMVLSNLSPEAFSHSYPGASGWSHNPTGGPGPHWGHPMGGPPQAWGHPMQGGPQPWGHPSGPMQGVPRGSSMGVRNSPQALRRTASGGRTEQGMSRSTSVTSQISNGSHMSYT
As to the kind of experiment: Selectivity interaction (LanthaScreen Eu Kinase Binding Assay) EUB0001632a TAOK1. The settings on record: at 10 µM. On the technique in general: TR-FRET usually uses a lanthanide donor and a delayed reading to cut background.

Assay [2] deals with T2, Calcium/calmodulin-dependent protein kinase type IV (Homo sapiens) (UniProt Q16566).
T2 sequence (whole entry): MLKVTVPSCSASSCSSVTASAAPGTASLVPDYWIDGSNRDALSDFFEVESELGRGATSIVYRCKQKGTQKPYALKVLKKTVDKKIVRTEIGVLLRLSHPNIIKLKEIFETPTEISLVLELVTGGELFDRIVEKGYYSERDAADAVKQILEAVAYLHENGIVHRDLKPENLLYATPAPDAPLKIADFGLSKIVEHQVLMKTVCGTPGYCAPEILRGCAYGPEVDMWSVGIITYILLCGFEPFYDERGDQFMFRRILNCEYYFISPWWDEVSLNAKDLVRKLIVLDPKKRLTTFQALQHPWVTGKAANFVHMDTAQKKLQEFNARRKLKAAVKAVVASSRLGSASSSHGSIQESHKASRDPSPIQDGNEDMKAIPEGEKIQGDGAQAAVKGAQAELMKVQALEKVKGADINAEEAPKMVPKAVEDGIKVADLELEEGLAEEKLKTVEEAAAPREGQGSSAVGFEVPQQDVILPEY
Briefly: Selectivity interaction (Kinase panel (KiNativ target engagement assay in Jurkat cells)) EUB0001635a CAMK4. The class given is cell-based. The note with it: Selectivity number of off-targets 0.0, Selectivity number of targets 233.0, Source Knowledge https://www.sciencedirect.com/science/article/pii/S2451945619300674?via%3Dihub, at 1 µM.

The target in assay [3] is Cyclin-dependent kinase 13 (Homo sapiens, UniProt Q14004). Briefly: Selectivity interaction (Ambit KINOMEscan and KiNATiv profiling in Jurkat cells) EUB0000090b CDK13. It is filed as cell-based. The settings on record: at 1 µM.
In assay [4] the test system is Phosphatidylinositol 4,5-bisphosphate 3-kinase catalytic subunit alpha isoform (Homo sapiens), P42336 [I800L]. The note with it: at 10 µM.
Assay [5] addresses DNA (cytosine-5)-methyltransferase 3A (Homo sapiens) (UniProt Q9Y6K1). Briefly: Selectivity interaction (Methyltransferase screen (Scintillation proximity assays)) EUB0000255b DNMT3A. Background: Scintillation proximity formats need no separation of bound from free tracer.
Assay [6] has as its target Phosphatidylinositol 4,5-bisphosphate 3-kinase catalytic subunit gamma isoform (Homo sapiens) (UniProt P48736). Briefly: Selectivity interaction (KinomeScan (DiscoverX)) EUB0001079a PIK3CG. The settings on record: at 1 µM.
Assay [7] addresses T3, Aurora kinase A (Homo sapiens) (UniProt O14965).
T3 sequence (whole entry): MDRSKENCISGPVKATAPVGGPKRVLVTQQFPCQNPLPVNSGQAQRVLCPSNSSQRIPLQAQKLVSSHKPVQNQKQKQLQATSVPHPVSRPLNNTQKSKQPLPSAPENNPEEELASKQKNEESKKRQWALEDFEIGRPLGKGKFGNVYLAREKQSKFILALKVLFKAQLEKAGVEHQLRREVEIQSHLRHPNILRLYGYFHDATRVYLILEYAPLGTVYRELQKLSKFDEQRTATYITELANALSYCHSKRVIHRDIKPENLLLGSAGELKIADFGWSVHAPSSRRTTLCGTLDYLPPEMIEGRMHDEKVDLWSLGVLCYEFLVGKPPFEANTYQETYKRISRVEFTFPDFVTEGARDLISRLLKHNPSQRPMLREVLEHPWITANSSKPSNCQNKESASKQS
As to the kind of experiment: Selectivity interaction (ActivX KiNativ screen (kinase selectivity in THP-1 cell lysates)) EUB0000639a STK6. It is filed as subcellular. The settings on record: lysate, at 0.01 µM.

The target of assay [8] is CDK7/Cyclin H/MNAT1 (Homo sapiens) (UniProt P51946+P50613+P51948). Briefly: Selectivity interaction (Millipore kinase profiler) EUB0000124b CDK7. It is filed as protein-complex assay. The settings on record: at 10 µM.
In assay [9] the target is Mitotic checkpoint serine/threonine-protein kinase BUB1 (Homo sapiens, UniProt O43683).
Assay [10] concerns the target Tyrosine-protein kinase JAK1 (Homo sapiens, UniProt P23458). Briefly: Selectivity interaction (KinomeScan (DiscoverX)) EUB0001049a JAK1. The settings on record: at 1 µM.
Assay [11] deals with Protein-tyrosine kinase 2-beta (Homo sapiens) (UniProt Q14289). Briefly: Selectivity interaction (ProQinase) EUB0000171b PTK2B.
Assay [12] addresses Tyrosine-protein kinase Lck (Homo sapiens, UniProt P06239). Briefly: Selectivity interaction (KinomeScan (DiscoverX)) EUB0000045b LCK.
The target in assay [13] is Tyrosine-protein kinase JAK2 (Homo sapiens, UniProt O60674). Briefly: Selectivity interaction (KinomeScan (DiscoverX)) EUB0000618a JAK2. The settings on record: at 10 µM.
In assay [14] the target is Receptor-type tyrosine-protein kinase FLT3 (Homo sapiens) (UniProt P36888). As to the kind of experiment: Selectivity interaction (Upstate Kinase Profiler service (Millipore)) EUB0000056c FLT3. The note with it: at 1 µM.

Chain of Tyrosine-protein kinase Lck (P06239 2-509 limits assumed): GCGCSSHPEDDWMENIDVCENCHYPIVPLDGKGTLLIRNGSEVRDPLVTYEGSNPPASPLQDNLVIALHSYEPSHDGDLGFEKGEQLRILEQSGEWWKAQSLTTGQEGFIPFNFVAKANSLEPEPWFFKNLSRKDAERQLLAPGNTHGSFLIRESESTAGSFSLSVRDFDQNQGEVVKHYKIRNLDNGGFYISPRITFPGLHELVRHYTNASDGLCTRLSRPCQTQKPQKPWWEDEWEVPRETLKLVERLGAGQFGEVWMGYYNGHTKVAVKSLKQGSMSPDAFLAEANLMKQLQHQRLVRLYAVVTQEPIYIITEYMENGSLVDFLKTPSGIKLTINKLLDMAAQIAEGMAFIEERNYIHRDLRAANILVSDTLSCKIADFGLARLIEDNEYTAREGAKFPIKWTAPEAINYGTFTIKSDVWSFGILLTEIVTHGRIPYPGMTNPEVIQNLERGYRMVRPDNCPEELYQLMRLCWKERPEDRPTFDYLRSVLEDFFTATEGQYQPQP
Chain of Protein-tyrosine kinase 2-beta (Homo sapiens) (Q14289 whole entry, looked up): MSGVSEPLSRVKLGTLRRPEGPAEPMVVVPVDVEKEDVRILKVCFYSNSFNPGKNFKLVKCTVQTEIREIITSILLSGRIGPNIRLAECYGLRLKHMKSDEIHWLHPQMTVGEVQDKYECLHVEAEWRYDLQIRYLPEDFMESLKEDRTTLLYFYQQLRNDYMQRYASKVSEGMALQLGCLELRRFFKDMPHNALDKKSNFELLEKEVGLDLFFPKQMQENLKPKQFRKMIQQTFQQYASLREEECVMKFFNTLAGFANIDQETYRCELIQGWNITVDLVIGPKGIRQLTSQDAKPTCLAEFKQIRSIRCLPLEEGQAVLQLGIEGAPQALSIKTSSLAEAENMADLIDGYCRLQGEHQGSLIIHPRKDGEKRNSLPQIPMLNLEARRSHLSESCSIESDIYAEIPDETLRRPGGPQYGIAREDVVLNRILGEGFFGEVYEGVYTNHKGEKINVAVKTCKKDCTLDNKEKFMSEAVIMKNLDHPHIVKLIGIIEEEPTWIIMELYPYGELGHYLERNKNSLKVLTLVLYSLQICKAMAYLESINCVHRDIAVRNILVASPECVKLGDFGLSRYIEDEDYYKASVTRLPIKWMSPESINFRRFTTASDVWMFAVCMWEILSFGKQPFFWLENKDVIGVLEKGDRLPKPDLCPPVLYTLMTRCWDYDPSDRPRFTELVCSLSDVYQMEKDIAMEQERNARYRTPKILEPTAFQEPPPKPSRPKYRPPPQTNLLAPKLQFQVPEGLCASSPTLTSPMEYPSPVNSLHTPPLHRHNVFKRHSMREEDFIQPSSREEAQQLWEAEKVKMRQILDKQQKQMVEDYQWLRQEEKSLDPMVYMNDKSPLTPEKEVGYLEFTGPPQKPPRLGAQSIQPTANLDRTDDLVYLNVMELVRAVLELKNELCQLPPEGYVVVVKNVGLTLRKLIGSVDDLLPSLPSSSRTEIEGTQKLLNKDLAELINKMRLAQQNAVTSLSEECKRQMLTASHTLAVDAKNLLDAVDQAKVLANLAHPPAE
Chain of DNA (cytosine-5)-methyltransferase 3A (Homo sapiens) (Q9Y6K1 whole entry, looked up, canonical isoform): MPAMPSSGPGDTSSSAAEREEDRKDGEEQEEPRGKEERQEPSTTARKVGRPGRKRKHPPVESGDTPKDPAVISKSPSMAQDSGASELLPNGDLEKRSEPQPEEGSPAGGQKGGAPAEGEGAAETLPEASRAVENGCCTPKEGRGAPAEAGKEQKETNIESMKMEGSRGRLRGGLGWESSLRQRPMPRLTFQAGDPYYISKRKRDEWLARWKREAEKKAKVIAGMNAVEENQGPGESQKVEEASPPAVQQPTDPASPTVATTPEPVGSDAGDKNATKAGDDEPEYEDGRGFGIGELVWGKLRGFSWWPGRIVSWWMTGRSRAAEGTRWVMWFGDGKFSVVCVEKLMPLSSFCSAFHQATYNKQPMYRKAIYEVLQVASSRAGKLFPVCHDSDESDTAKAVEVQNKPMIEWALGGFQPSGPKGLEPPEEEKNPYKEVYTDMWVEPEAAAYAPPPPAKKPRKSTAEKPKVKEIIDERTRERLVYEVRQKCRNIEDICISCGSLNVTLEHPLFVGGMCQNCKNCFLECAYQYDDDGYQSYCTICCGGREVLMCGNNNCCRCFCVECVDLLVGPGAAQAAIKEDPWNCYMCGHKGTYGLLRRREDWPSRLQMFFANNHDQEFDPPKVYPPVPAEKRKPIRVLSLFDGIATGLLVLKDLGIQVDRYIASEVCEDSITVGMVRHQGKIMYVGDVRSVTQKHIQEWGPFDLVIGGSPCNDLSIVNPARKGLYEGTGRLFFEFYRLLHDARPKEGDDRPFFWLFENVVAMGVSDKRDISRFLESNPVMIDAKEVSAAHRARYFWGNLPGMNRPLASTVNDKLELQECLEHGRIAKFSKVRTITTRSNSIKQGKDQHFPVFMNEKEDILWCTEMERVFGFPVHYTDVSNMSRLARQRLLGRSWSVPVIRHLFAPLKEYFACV
Chain of Tyrosine-protein kinase JAK1 (P23458 whole entry): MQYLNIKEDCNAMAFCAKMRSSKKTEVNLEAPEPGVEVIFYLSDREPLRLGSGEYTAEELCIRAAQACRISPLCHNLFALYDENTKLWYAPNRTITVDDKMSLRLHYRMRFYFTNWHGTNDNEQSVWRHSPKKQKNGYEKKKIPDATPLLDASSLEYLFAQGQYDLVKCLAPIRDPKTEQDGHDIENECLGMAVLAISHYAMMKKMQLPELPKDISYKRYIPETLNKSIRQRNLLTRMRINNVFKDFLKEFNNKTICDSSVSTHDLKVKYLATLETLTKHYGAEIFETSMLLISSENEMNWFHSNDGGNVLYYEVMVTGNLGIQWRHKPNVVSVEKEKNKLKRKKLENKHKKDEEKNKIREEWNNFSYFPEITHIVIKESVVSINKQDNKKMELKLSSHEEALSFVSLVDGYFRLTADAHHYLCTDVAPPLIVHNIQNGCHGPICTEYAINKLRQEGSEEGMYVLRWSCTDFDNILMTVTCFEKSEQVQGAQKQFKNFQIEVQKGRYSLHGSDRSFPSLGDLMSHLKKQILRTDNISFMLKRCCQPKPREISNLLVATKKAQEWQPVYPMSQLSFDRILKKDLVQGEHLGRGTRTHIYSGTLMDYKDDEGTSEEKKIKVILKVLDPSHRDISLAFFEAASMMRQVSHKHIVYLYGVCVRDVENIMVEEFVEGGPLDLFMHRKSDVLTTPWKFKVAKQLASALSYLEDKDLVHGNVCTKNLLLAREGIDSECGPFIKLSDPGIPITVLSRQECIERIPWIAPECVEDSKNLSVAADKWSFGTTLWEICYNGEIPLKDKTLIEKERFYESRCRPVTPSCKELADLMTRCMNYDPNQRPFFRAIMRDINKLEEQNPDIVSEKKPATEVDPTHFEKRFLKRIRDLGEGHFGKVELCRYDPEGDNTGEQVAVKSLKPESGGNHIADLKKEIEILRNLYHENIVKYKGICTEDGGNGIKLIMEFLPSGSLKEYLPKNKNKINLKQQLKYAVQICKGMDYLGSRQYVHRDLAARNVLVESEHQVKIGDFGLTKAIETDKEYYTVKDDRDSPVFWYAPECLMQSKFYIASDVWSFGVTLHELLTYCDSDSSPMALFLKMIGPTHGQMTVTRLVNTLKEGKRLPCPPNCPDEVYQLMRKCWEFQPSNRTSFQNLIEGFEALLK
Chain of Phosphatidylinositol 4,5-bisphosphate 3-kinase catalytic subunit alpha isoform (Homo sapiens), P42336 [I800L] (P42336 whole entry I800L, canonical isoform): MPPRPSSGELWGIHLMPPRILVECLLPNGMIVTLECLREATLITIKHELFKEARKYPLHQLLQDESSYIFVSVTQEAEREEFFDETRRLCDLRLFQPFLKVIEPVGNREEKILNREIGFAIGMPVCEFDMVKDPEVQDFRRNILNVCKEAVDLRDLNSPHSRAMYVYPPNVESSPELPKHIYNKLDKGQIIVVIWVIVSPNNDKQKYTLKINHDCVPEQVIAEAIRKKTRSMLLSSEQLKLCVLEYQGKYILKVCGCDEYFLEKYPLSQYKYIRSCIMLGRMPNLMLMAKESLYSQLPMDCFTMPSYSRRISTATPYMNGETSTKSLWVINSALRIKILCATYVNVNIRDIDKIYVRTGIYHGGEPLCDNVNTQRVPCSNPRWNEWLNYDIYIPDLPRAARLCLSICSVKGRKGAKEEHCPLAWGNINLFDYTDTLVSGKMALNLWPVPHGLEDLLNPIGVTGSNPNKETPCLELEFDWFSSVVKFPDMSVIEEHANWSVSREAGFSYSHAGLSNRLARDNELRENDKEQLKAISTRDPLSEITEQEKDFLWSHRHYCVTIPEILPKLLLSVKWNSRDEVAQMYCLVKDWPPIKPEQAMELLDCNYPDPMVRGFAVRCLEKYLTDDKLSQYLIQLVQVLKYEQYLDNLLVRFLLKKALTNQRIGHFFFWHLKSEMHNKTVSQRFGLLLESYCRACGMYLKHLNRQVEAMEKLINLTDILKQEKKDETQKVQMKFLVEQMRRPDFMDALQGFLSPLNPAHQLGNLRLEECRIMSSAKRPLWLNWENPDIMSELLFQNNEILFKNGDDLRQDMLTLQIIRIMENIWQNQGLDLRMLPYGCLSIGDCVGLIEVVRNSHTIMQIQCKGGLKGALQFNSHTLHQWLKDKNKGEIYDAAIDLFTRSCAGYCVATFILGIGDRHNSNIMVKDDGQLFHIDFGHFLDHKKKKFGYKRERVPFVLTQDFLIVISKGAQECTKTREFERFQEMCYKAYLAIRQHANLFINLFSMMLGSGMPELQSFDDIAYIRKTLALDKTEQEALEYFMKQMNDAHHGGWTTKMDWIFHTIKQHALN

Regarding `Cn1cc(-n2cnc3c(NCc4nc5cc(Cl)c(Cl)cc5[nH]4)nc(N4CCOCC4)nc32)cn1`, the % of inhibition in assay [1] came out at 31.8%. As for `C=CC(=O)Nc1ccc(C(=O)Nc2[nH]nc3c2CN(C(=O)N[C@H](CN(C)C)c2ccccc2)C3(C)C)cc1`, in assay [2], the % of engagement was -8.6%. For `CN(C)C/C=C/C(=O)Nc1ccc(C(=O)N2CCCC(Nc3ncc(Cl)c(-c4c[nH]c5ccccc45)n3)C2)cc1` (configuration not stated), the % of control in [3] amounted to 2.8%.

In assay [4], `CNC(=O)Nc1ccc(-c2nc(N3CC4CCC(C3)O4)c3cnn(C4CCC5(CC4)OCCO5)c3n2)cc1` showed a % of control of 5%.

For `COCCN1CCC(c2cc(CN(C)C(=O)c3cccc(Oc4ccccc4)c3)ccn2)CC1`, the % activity in [5] (at 1 µM) was greater than 95%; in assay [5] (at 10 µM) it was greater than 85%. In the case of `Nc1cnc(N2CCc3cc(S(=O)(=O)Nc4c(F)cc(Cl)cc4F)cc(N4CCCC4=O)c32)nc1` [TP-020n], the % of control in [6] came to 81%.

Turning to `CC[C@@H]1[C@H](F)C(=O)N[C@@H]1COc1nccc2cc(C(N)=O)c(OC)cc12` [ZIMLOVISERTIB], the % of inhibition in [7] worked out at 4.9%. The compound `CC(=O)Nc1cccc(-n2c(=O)n(C3CC3)c(=O)c3c(Nc4ccc(I)cc4F)n(C)c(=O)c(C)c32)c1` showed a % of control in [8] of 106%. In turn, `CCc1cccc(CC)c1NC(=O)c1nn(C)c2c1CCc1cnc(Nc3ccc(C(=O)NC4CCN(C)CC4)cc3OC(F)(F)F)nc1-2` came in with an IC50 in [9] greater than 10 µM. In assay [10], `COc1cc(Nc2nc(C)cc(-c3cnn4nc(OC)ccc34)n2)cc(C(F)(F)F)c1` gave a % of control of 85%.

Consider `C=CC(=O)Nc1cccc(C(=O)Nc2ccc(Nc3cc(-c4[nH]c(SC)nc4C)ccn3)cc2)c1`, for which the % of control was found to be 91% in assay [11] (at 1 µM) and 96% in assay [11] (at 5 µM). Take `C=CC(=O)Nc1cc(-n2c(=O)ccc3cnc4ccc(-c5ccc(NS(C)(=O)=O)cc5)cc4c32)ccc1C`: the % of control in assay [12] (at 1 µM) is 89%; in assay [12] (at 10 µM), 80%.

In the case of `O[C@H]1CC[C@H](Nc2ncc3nc(Nc4c(F)cc(F)cc4F)n([C@H]4CCOC4)c3n2)CC1`, the % of control in assay [13] stood at 97%.

For the compound `Cc1ccc(-c2ccc3c(ccc4sc5c(c43)NC[C@@H](C)NC5=O)n2)cn1`, in assay [14], the % of inhibition is -11%.
